SMILES strings stand for the structures.

In one data set the test system is amidase. In words: Mouse liver microsomal amidase, isoniazid to isonicotinic acid. The class given is biochemical. The following applies: 1 uM. From the text: Mouse liver microsomes were used as the source of amidase, and isoniazid was used as the amidase metabolism drugs. quantitative isoniazid was catalyzed into metabolites isonicotinic acid (INA) by amidase, and was used as the index for measurement of the amidase activity for establishment of the platform for screening in vitro amidase activity inhibitors. The HPLC system includes a Shimadzu the LC-LOAD pump, 1 Shimadzu system control and a Shimadzu autosampler (Shimadzu Scientific Instrument, Japan). A C18 column (particle size 5 μm, inner diameter of 50×4.6 mm, 25 cm) containing 70% methanol and 30% ammonium formate (50 mM, pH=2.5) of the mobile phase for HPLC separation, and the experimental steps are outlined as follows:
(2) An aliquot of 150 μL mouse liver microsomal solution was added to 100 μL isoniazid solution in 35 μL 67 mM potassium phosphate buffer solution ([…], pH=7) with a final concentration at 3 mM, and then mixed thoroughly with 15 μL amidase inhibitor (deionized water was added in the control group). (3) Incubation at 37° C. water bath for 30 minutes. (4) An aliquot of 300 μL acetonitrile (ACN) was added and mixed thoroughly, and incubated for 6 minutes. (5) An aliquot of 30 μL perchloric acid was then mixed and incubated for 6 minutes. (6) The mixture was centrifuged at 13000 g for 6 minutes. (7) After centrifugation, 100 μL of the supernatant was injected into HPLC. (8) Methanol ammonium formate (50 mM, pH=2.5)=70:30 (V/V) was selected as the mobile phase, and the flow rate was controlled at […] and detected at 270 nm UV. […] The amidase inhibition % was then calculated using the following formula: […]
In general terms: Liver microsomes are a subcellular fraction often used to study metabolism.
Consider `C=C(C)C1CC=C(C)CC1` (single isomer, unassigned; (+)) [(+)-Limonene], for which the Amidase inhibition came to 5.1 ± 0.4%.

Turning to `Oc1cc(O)c2c(c1)O[C@H](c1cc(O)c(O)c(O)c1)[C@H](O)C2` [(−)-Epigallocatechin], the Amidase inhibition was −1.2 ± 2.1%.

As to `O=c1cc(-c2ccc(O)cc2)oc2cc(O)cc(O)c12` [Apigenin], the Amidase inhibition was −10.2 ± 20.3%.

As to `O=c1cc(-c2ccccc2)oc2cc(O)c(O)c(O)c12` [Baicalein], the Amidase inhibition came to 2.8 ± 15.1%.

Consider `O=C(O)[C@H]1O[C@@H](Oc2cc3oc(-c4ccccc4)cc(=O)c3c(O)c2O)[C@H](O)[C@@H](O)[C@@H]1O` [Baicalin], for which the Amidase inhibition is 2.1 ± 7.5%.

Consider `O=c1c(-c2ccc(O)cc2)coc2cc(O)ccc12` [Daidzein], for which the Amidase inhibition was −12.1 ± 6.3%.

As to `COc1ccc(-c2cc(=O)c3c(O)cc(O[C@@H]4O[C@H](CO[C@@H]5O[C@@H](C)[C@H](O)[C@@H](O)[C@H]5O)[C@@H](O)[C@H](O)[C@H]4O)cc3o2)cc1O` [Diosmin], the Amidase inhibition came out at 0.3 ± 8.1%.

Consider `O=c1c(-c2ccc(O)cc2)coc2cc(O)cc(O)c12` [Genistein], for which the Amidase inhibition was −2.1 ± 46.2%.

As for `COc1cc(-c2oc3cc(O)cc(O)c3c(=O)c2O)ccc1O` [Isorhamnetin], the Amidase inhibition came to 13.8 ± 1.0%.

On to `O=c1cc(-c2ccc(O)cc2)oc2cc(O)c([C@@H]3O[C@H](CO)[C@@H](O)[C@H](O)[C@H]3O)c(O)c12` [Isovitexin], for which the Amidase inhibition turned out to be 13.9 ± 2.3%.

`O=C1C[C@@H](c2ccc(O[C@@H]3O[C@H](CO)[C@@H](O)[C@H](O)[C@H]3O)cc2)Oc2cc(O)ccc21` [Liquiritin]: the Amidase inhibition worked out at 2.5 ± 2.9%.

Turning to `CC1(C)CC[C@]2(C(=O)O)CC[C@]3(C)C(=CC[C@@H]4[C@@]5(C)CC[C@H](O)C(C)(C)[C@@H]5CC[C@]43C)[C@@H]2C1` [Oleanolic Acid], the Amidase inhibition stood at 20.3 ± 5.2%.

In the case of `COc1ccc([C@@H]2CC(=O)c3c(O)cc(O[C@@H]4O[C@H](CO)[C@@H](O)[C@H](O)[C@H]4O[C@@H]4O[C@@H](C)[C@H](O)[C@@H](O)[C@H]4O)cc3O2)cc1` [Poncirin], the Amidase inhibition is on record as 10.8 ± 3.8%.

As for `COc1ccc(-c2cc(=O)c3c(O)cc(O)c(-c4cc(-c5cc(=O)c6c(O)cc(OC)cc6o5)ccc4OC)c3o2)cc1` [Sciadopitysin], the Amidase inhibition came to 10.3 ± 3.8%.

On to `COc1ccc(-c2cc(=O)c3c(OC)c(OC)c(OC)cc3o2)cc1OC` [Sinensetin], for which the Amidase inhibition was −0.8 ± 3.0%.

In the case of `O=c1cc(-c2ccccc2)oc2c1ccc1ccccc12` [α-Naphthoflavone], the Amidase inhibition is on record as 7.3 ± 7.9%.

The data set is the same for the next values; noted with them: 10 uM.
Consider `C=C(C)C1CC=C(C)CC1` (single isomer, unassigned; (+)) [(+)-Limonene], for which the Amidase inhibition came out at 3.2 ± 8.6%.

For `Oc1cc(O)c2c(c1)O[C@H](c1cc(O)c(O)c(O)c1)[C@H](O)C2` [(−)-Epigallocatechin], the Amidase inhibition is −7.3 ± 7.6%.

Take `O=c1cc(-c2ccc(O)cc2)oc2cc(O)cc(O)c12` [Apigenin]: the Amidase inhibition is 13.2 ± 3.4%.

`O=c1cc(-c2ccccc2)oc2cc(O)c(O)c(O)c12` [Baicalein]: the Amidase inhibition turned out to be 5.7 ± 2.6%.

Consider `O=C(O)[C@H]1O[C@@H](Oc2cc3oc(-c4ccccc4)cc(=O)c3c(O)c2O)[C@H](O)[C@@H](O)[C@@H]1O` [Baicalin], for which the Amidase inhibition is recorded as 15.2 ± 6.3%.

For the compound `O=c1c(-c2ccc(O)cc2)coc2cc(O)ccc12` [Daidzein], the Amidase inhibition is on record as 1.0 ± 7.4%.

Take `COc1ccc(-c2cc(=O)c3c(O)cc(O[C@@H]4O[C@H](CO[C@@H]5O[C@@H](C)[C@H](O)[C@@H](O)[C@H]5O)[C@@H](O)[C@H](O)[C@H]4O)cc3o2)cc1O` [Diosmin]: the Amidase inhibition is recorded as −0.7 ± 7.7%.

For the compound `O=c1c(-c2ccc(O)cc2)coc2cc(O)cc(O)c12` [Genistein], the Amidase inhibition is recorded as 1.8 ± 7.6%.

Regarding `COc1cc(-c2oc3cc(O)cc(O)c3c(=O)c2O)ccc1O` [Isorhamnetin], the Amidase inhibition was found to be 20.0 ± 4.6%.

On to `O=c1cc(-c2ccc(O)cc2)oc2cc(O)c([C@@H]3O[C@H](CO)[C@@H](O)[C@H](O)[C@H]3O)c(O)c12` [Isovitexin], for which the Amidase inhibition stood at 5.8 ± 2.7%.

For the compound `O=C1C[C@@H](c2ccc(O[C@@H]3O[C@H](CO)[C@@H](O)[C@H](O)[C@H]3O)cc2)Oc2cc(O)ccc21` [Liquiritin], the Amidase inhibition is −7.5 ± 13.4%.

With `CC1(C)CC[C@]2(C(=O)O)CC[C@]3(C)C(=CC[C@@H]4[C@@]5(C)CC[C@H](O)C(C)(C)[C@@H]5CC[C@]43C)[C@@H]2C1` [Oleanolic Acid], the Amidase inhibition stood at 14.8 ± 3.4%.

With `COc1ccc([C@@H]2CC(=O)c3c(O)cc(O[C@@H]4O[C@H](CO)[C@@H](O)[C@H](O)[C@H]4O[C@@H]4O[C@@H](C)[C@H](O)[C@@H](O)[C@H]4O)cc3O2)cc1` [Poncirin], the Amidase inhibition was found to be 8.1 ± 11.7%.

`COc1ccc(-c2cc(=O)c3c(O)cc(O)c(-c4cc(-c5cc(=O)c6c(O)cc(OC)cc6o5)ccc4OC)c3o2)cc1` [Sciadopitysin]: the Amidase inhibition is listed as 20.7 ± 6.0%.

For the compound `COc1ccc(-c2cc(=O)c3c(OC)c(OC)c(OC)cc3o2)cc1OC` [Sinensetin], the Amidase inhibition is recorded as 6.6 ± 0.5%.

Take `O=c1cc(-c2ccccc2)oc2c1ccc1ccccc12` [α-Naphthoflavone]: the Amidase inhibition was 19.3 ± 3.7%.

Staying with this data set, now noted: 100 uM.
Consider `C=C(C)C1CC=C(C)CC1` (single isomer, unassigned; (+)) [(+)-Limonene], for which the Amidase inhibition is given as 6.2 ± 3.8%.

For `Oc1cc(O)c2c(c1)O[C@H](c1cc(O)c(O)c(O)c1)[C@H](O)C2` [(−)-Epigallocatechin], the Amidase inhibition was determined as 2.2 ± 4.1%.

Regarding `O=c1cc(-c2ccccc2)oc2cc(O)c(O)c(O)c12` [Baicalein], the Amidase inhibition was 15.6 ± 1.0%.

As for `O=C(O)[C@H]1O[C@@H](Oc2cc3oc(-c4ccccc4)cc(=O)c3c(O)c2O)[C@H](O)[C@@H](O)[C@@H]1O` [Baicalin], the Amidase inhibition is on record as 34.8 ± 10.2%.

With `O=c1c(-c2ccc(O)cc2)coc2cc(O)ccc12` [Daidzein], the Amidase inhibition amounted to 16.2 ± 12.6%.

Regarding `COc1ccc(-c2cc(=O)c3c(O)cc(O[C@@H]4O[C@H](CO[C@@H]5O[C@@H](C)[C@H](O)[C@@H](O)[C@H]5O)[C@@H](O)[C@H](O)[C@H]4O)cc3o2)cc1O` [Diosmin], the Amidase inhibition came to 1.6 ± 5.1%.

With `O=c1c(-c2ccc(O)cc2)coc2cc(O)cc(O)c12` [Genistein], the Amidase inhibition was determined as 5.8 ± 6.8%.

As for `COc1cc(-c2oc3cc(O)cc(O)c3c(=O)c2O)ccc1O` [Isorhamnetin], the Amidase inhibition was 31.3 ± 1.3%.

With `O=c1cc(-c2ccc(O)cc2)oc2cc(O)c([C@@H]3O[C@H](CO)[C@@H](O)[C@H](O)[C@H]3O)c(O)c12` [Isovitexin], the Amidase inhibition stood at 1.1 ± 7.1%.

As to `O=C1C[C@@H](c2ccc(O[C@@H]3O[C@H](CO)[C@@H](O)[C@H](O)[C@H]3O)cc2)Oc2cc(O)ccc21` [Liquiritin], the Amidase inhibition is on record as 12.5 ± 8.3%.

Consider `CC1(C)CC[C@]2(C(=O)O)CC[C@]3(C)C(=CC[C@@H]4[C@@]5(C)CC[C@H](O)C(C)(C)[C@@H]5CC[C@]43C)[C@@H]2C1` [Oleanolic Acid], for which the Amidase inhibition came out at 24.5 ± 4.0%.

As to `COc1ccc([C@@H]2CC(=O)c3c(O)cc(O[C@@H]4O[C@H](CO)[C@@H](O)[C@H](O)[C@H]4O[C@@H]4O[C@@H](C)[C@H](O)[C@@H](O)[C@H]4O)cc3O2)cc1` [Poncirin], the Amidase inhibition came out at 17.3 ± 5.8%.

As to `COc1ccc(-c2cc(=O)c3c(O)cc(O)c(-c4cc(-c5cc(=O)c6c(O)cc(OC)cc6o5)ccc4OC)c3o2)cc1` [Sciadopitysin], the Amidase inhibition is recorded as 20.6 ± 19.3%.

For the compound `COc1ccc(-c2cc(=O)c3c(OC)c(OC)c(OC)cc3o2)cc1OC` [Sinensetin], the Amidase inhibition is on record as 9.7 ± 0.9%.

Turning to `O=c1cc(-c2ccccc2)oc2c1ccc1ccccc12` [α-Naphthoflavone], the Amidase inhibition is reported as 36.9 ± 2.7%.

For another data set, the target named is human liver microsomal cytochrome P450 2E1 (CYP2E1) (Homo sapiens, UniProt P05181). The experiment in a line: Human liver microsomal CYP2E1, chlorzoxazone 6-hydroxylation.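 Note: chlorzoxazone added as substrate, 6-hydroxychlorzoxazone formation quantified by LC/MS/MS after 30 min at 37 °C with NADP+ regenerating system, compared against solvent control without test sample.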 Particulars: 16.5 μM.
Sequence of human liver microsomal cytochrome P450 2E1 (CYP2E1) (P05181 whole entry): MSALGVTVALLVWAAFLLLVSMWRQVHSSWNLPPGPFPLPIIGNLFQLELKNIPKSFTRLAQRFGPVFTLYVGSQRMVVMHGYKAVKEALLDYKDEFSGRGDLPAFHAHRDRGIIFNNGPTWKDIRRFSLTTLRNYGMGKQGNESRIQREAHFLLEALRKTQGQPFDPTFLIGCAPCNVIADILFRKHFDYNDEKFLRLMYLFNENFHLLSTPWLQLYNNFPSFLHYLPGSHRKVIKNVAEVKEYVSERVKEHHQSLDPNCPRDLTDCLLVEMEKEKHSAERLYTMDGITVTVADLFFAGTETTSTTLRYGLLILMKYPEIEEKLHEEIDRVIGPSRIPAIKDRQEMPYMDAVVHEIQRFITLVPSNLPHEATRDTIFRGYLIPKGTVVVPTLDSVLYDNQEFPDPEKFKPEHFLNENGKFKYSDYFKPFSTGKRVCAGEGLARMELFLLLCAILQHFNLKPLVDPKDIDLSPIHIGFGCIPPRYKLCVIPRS
Description: Microsomes prepared from human liver were used to extract cytochrome P450 2E1 (CYP2E1) and CYP2E1 inhibitors were screened from 39 Chinese medicine guiding drugs and 10 excipients. Chlorzoxazone hydroxylation is a reaction catalyzed primarily by CYP2E1 in liver. The extracted human liver microsomal cytochrome P450 2E1 (CYP2E1) was mixed with its substrate, Chlorzoxazone, and test sample was then added Inhibition of CYP2E1 activity was calculated by measuring CYP2E1 standard metabolite, 6-OH-CZX (6-Hydroxy-Chlorzoxazone), and compared with control 6-OH-CZX.
After incubation, 16 mM Chlorzoxazone and test samples were added to experimental groups; methanol:sterilized water at 1:1 ratio was added to control groups and DDTC was added to positive control groups,
Finally, cofactor 1 mM NADP^+, 10 mM G6P and 2 IU G6PD were added and reaction mixtures were transferred to pre-incubation 37° C. water bath for 1 mM and activity was measured after 30 min of reaction
At the end of reaction, 500 μl acetonitrile was added to stop the reaction followed by 5 g/mL 4-hydroxy-tobutamide after 1 mM incubation. The mixture was then centrifuged and 20 L of supernatant was diluted ten times with methanol/sterilized water and 5 L was used for LC/MS/MS analysis. […] The inhibition of CYP2E1 was then calculated by the following equation:
In the case of `C=C(C)C1CC=C(C)CC1` (single isomer, unassigned; (+)) [(+)-Limonene], the “Inhibition of CYP 2E1” value was 13.77 ± 1.96%.

Take `Oc1cc(O)c2c(c1)O[C@H](c1cc(O)c(O)c(O)c1)[C@H](O)C2` [(−)-Epigallocatechin]: the “Inhibition of CYP 2E1” value is 38.95 ± 1.92%.

Staying with this data set, now noted: 33 μM.
Take `C=C(C)C1CC=C(C)CC1` (single isomer, unassigned; (+)) [(+)-Limonene]: the “Inhibition of CYP 2E1” value was 38.05 ± 1.95%.

For `Oc1cc(O)c2c(c1)O[C@H](c1cc(O)c(O)c(O)c1)[C@H](O)C2` [(−)-Epigallocatechin], the “Inhibition of CYP 2E1” value is on record as 36.40 ± 2.18%.

Staying with this data set, now noted: 66 μM.
As to `C=C(C)C1CC=C(C)CC1` (single isomer, unassigned; (+)) [(+)-Limonene], the “Inhibition of CYP 2E1” value was found to be 63.64 ± 2.74%.

As to `Oc1cc(O)c2c(c1)O[C@H](c1cc(O)c(O)c(O)c1)[C@H](O)C2` [(−)-Epigallocatechin], the “Inhibition of CYP 2E1” value worked out at 57.08 ± 1.85%.

The same data set, now with this note: Table 6; minimum tested concentration (mg/L) × volume of human liver and intestine (3 L).
In the case of `Oc1cc(O)c2c(c1)O[C@H](c1cc(O)c(O)c(O)c1)[C@H](O)C2` [(−)-Epigallocatechin], the “Minimum Effective Dose” value stood at 17 mg.

For `O=c1cc(-c2ccc(O)cc2)oc2cc(O)cc(O)c12` [Apigenin], the “Minimum Effective Dose” value was 15 mg.

As to `O=c1cc(-c2ccccc2)oc2cc(O)c(O)c(O)c12` [Baicalein], the “Minimum Effective Dose” value was found to be 15 mg.

On to `O=C(O)[C@H]1O[C@@H](Oc2cc3oc(-c4ccccc4)cc(=O)c3c(O)c2O)[C@H](O)[C@@H](O)[C@@H]1O` [Baicalin], for which the “Minimum Effective Dose” value stood at 24 mg.

As to `O=c1c(-c2ccc(O)cc2)coc2cc(O)ccc12` [Daidzein], the “Minimum Effective Dose” value came out at 14 mg.

As for `COc1ccc(-c2cc(=O)c3c(O)cc(O[C@@H]4O[C@H](CO[C@@H]5O[C@@H](C)[C@H](O)[C@@H](O)[C@H]5O)[C@@H](O)[C@H](O)[C@H]4O)cc3o2)cc1O` [Diosmin], the “Minimum Effective Dose” value was found to be 33 mg.

For the compound `O=c1c(-c2ccc(O)cc2)coc2cc(O)cc(O)c12` [Genistein], the “Minimum Effective Dose” value came out at 15 mg.

Take `COc1cc(-c2oc3cc(O)cc(O)c3c(=O)c2O)ccc1O` [Isorhamnetin]: the “Minimum Effective Dose” value is 14 mg.

On to `O=c1cc(-c2ccc(O)cc2)oc2cc(O)c([C@@H]3O[C@H](CO)[C@@H](O)[C@H](O)[C@H]3O)c(O)c12` [Isovitexin], for which the “Minimum Effective Dose” value was determined as 24 mg.

The values above are taken from US8969312B2, “Low side effect pharmaceutical composition containing antituberculosis drugs” (priority 2011, dated 2015).
